Data taken from US20100184190A1, “Influencing viral lipid constituents” (priority 2006, published 2010).

Test system: chicken embryo kidney (CEK) cells
Assay: FTIR microscopy of membrane phase transitions of treated CEK cell membranes
Type: cell-based
Conditions: treated versus control
Excerpt: The hydrophobic pocket of cyclodexrins has the ability to sequester cholesterol from membranes. When membrane cholesterol content was reduced by cyclodextrin treatment, as compared to the control of FIG. 1A, lipid mobility was reduced and the lipids found more ordered, as shown in FIG. 1B.

Row | Substance | change of membrane lipid order / melting groups (FTIR)
1 | cyclodextrin | significant increase in about 45 °C melting lipid ordered groups
2 | sphingomyelinase | significant reduction in the lower melting groups and a large increase in more ordered high melting membrane lipid groups
